# According to PubChem BioAssay AID2060489 (Molecular Pharmacology Branch, DTP, NCI, 2025):
# Test system: 922993-354-T-J3-PDC complex spheroids, viability
# Assay: Anticancer human tumor 922993-354-T-J3-PDC patient-derived endometrial carcinoma cell line growth inhibition [GQUAD]
# Conditions: for IC50: curve of first compound; for viability, T/C: stronger effect = lower value
# How it was run: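 Viability of tumor cells grown as complex spheroids with endothelial and stromal cells, exposed to drug combinations. Top concentration at or near clinical Cmax (else 10 microM), diluted in half-log increments.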
# [1] = second compound 0.0316 µM, first compound 0.0316 µM
# [2] = second compound 0.0316 µM, first compound 0.1 µM
# [3] = second compound 0.0316 µM, first compound 0.316 µM
# [4] = second compound 0.0316 µM, first compound 1 µM
# [5] = second compound 0.0316 µM, first compound 3.16 µM
# [6] = second compound 0.0316 µM, first compound 10 µM
# [7] = second compound 0.1 µM, first compound 0.0316 µM
# [8] = second compound 0.1 µM, first compound 0.1 µM
# [9] = second compound 0.1 µM, first compound 0.316 µM
# [10] = second compound 0.1 µM, first compound 1 µM
# [11] = second compound 0.1 µM, first compound 3.16 µM
# [12] = second compound 0.1 µM, first compound 10 µM
# [13] = second compound 0.316 µM, first compound 0.0316 µM
# [14] = second compound 0.316 µM, first compound 0.1 µM
# [15] = second compound 0.316 µM, first compound 0.316 µM
# [16] = second compound 0.316 µM, first compound 1 µM
# [17] = second compound 0.316 µM, first compound 3.16 µM
# [18] = second compound 0.316 µM, first compound 10 µM
# [19] = second compound 1 µM, first compound 0.0316 µM
# [20] = second compound 1 µM, first compound 0.1 µM
# [21] = second compound 1 µM, first compound 0.316 µM
# [22] = second compound 1 µM, first compound 1 µM
# [23] = second compound 1 µM, first compound 3.16 µM
# [24] = second compound 1 µM, first compound 10 µM
# [25] = second compound 3.16 µM, first compound 0.0316 µM
# [26] = second compound 3.16 µM, first compound 0.1 µM
# [27] = second compound 3.16 µM, first compound 0.316 µM
# [28] = second compound 3.16 µM, first compound 1 µM
# [29] = second compound 3.16 µM, first compound 3.16 µM
# [30] = second compound 3.16 µM, first compound 10 µM
# [31] = second compound 10 µM, first compound 0.0316 µM
# [32] = second compound 10 µM, first compound 0.1 µM
# [33] = second compound 10 µM, first compound 0.316 µM
# [34] = second compound 10 µM, first compound 1 µM
# [35] = second compound 10 µM, first compound 3.16 µM
# [36] = second compound 10 µM, first compound 10 µM
# 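Further: spheroids exposed to compounds for seven days.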
# 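Wherever viability, T/C is given: 100% = DMSO vehicle control viability.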
smiles,measurement,setting,value
C=CCn1c(=O)c2cnc(Nc3ccc(N4CCN(C)CC4)cc3)nc2n1-c1cccc(C(C)(C)O)n1 + Cc1[nH]c2ccc(F)cc2c1-c1nc2c3cccnc3c3ncccc3c2[nH]1,IC50,second compound 0.0316 µM,4.83 µM
same,IC50,second compound 0.1 µM,4.5 µM
same,IC50,second compound 0.316 µM,3.37 µM
same,IC50,second compound 1 µM,5.51 µM
same,IC50,second compound 3.16 µM,5.24 µM
same,IC50,second compound 10 µM,4.37 µM
same,"viability, T/C",[1],119%
same,"viability, T/C",[2],107%
same,"viability, T/C",[3],119%
same,"viability, T/C",[4],101%
same,"viability, T/C",[5],70.6%
same,"viability, T/C",[6],16.6%
same,"viability, T/C",[7],127%
same,"viability, T/C",[8],81.2%
same,"viability, T/C",[9],108%
same,"viability, T/C",[10],91.7%
same,"viability, T/C",[11],64.6%
same,"viability, T/C",[12],16.4%
same,"viability, T/C",[13],97.5%
same,"viability, T/C",[14],122%
same,"viability, T/C",[15],128%
same,"viability, T/C",[16],116%
same,"viability, T/C",[17],52.1%
same,"viability, T/C",[18],14.7%
same,"viability, T/C",[19],91.9%
same,"viability, T/C",[20],102%
same,"viability, T/C",[21],101%
same,"viability, T/C",[22],91%
same,"viability, T/C",[23],80.4%
same,"viability, T/C",[24],17.9%
same,"viability, T/C",[25],114%
same,"viability, T/C",[26],81.5%
same,"viability, T/C",[27],124%
same,"viability, T/C",[28],107%
same,"viability, T/C",[29],75.4%
same,"viability, T/C",[30],17.4%
same,"viability, T/C",[31],105%
same,"viability, T/C",[32],97.9%
same,"viability, T/C",[33],104%
same,"viability, T/C",[34],98.2%
same,"viability, T/C",[35],63.6%
same,"viability, T/C",[36],15%
CC(C)(O)C1CCC(Nc2ccc3ncc(-c4cccc(C(F)(F)F)c4)n3n2)CC1 (stereo not drawn) + Cc1[nH]c2ccc(F)cc2c1-c1nc2c3cccnc3c3ncccc3c2[nH]1,IC50,second compound 0.0316 µM,> 10 µM
same,IC50,second compound 0.1 µM,> 10 µM
same,IC50,second compound 0.316 µM,> 10 µM
same,IC50,second compound 1 µM,> 10 µM
same,IC50,second compound 3.16 µM,> 10 µM
same,IC50,second compound 10 µM,> 10 µM
same,"viability, T/C",[1],96.5%
same,"viability, T/C",[2],93.5%
same,"viability, T/C",[3],76.6%
same,"viability, T/C",[4],84.5%
same,"viability, T/C",[5],72.9%
same,"viability, T/C",[6],66.5%
same,"viability, T/C",[7],95.6%
same,"viability, T/C",[8],77%
same,"viability, T/C",[9],99.1%
same,"viability, T/C",[10],77.3%
same,"viability, T/C",[11],85%
same,"viability, T/C",[12],77.2%
same,"viability, T/C",[13],99.7%
same,"viability, T/C",[14],87.4%
same,"viability, T/C",[15],91.2%
same,"viability, T/C",[16],108%
same,"viability, T/C",[17],81.6%
same,"viability, T/C",[18],62.6%
same,"viability, T/C",[19],86.5%
same,"viability, T/C",[20],104%
same,"viability, T/C",[21],92.6%
same,"viability, T/C",[22],87.5%
same,"viability, T/C",[23],77.7%
same,"viability, T/C",[24],66.4%
same,"viability, T/C",[25],95.2%
same,"viability, T/C",[26],80.2%
same,"viability, T/C",[27],111%
same,"viability, T/C",[28],79.8%
same,"viability, T/C",[29],94.7%
same,"viability, T/C",[30],67%
same,"viability, T/C",[31],105%
same,"viability, T/C",[32],105%
same,"viability, T/C",[33],84.6%
same,"viability, T/C",[34],99.8%
same,"viability, T/C",[35],72.8%
same,"viability, T/C",[36],61.6%
COc1ncnc(C2CC2)c1-c1ncc2cnn(Cc3ccc(-c4nc(C(F)(F)F)cn4C(C)C)cc3)c2n1 + Cc1[nH]c2ccc(F)cc2c1-c1nc2c3cccnc3c3ncccc3c2[nH]1,IC50,second compound 0.0316 µM,> 10 µM
same,IC50,second compound 0.1 µM,> 10 µM
same,IC50,second compound 0.316 µM,> 10 µM
same,IC50,second compound 1 µM,> 10 µM
same,IC50,second compound 3.16 µM,> 10 µM
same,IC50,second compound 10 µM,> 10 µM
same,"viability, T/C",[1],94.6%
same,"viability, T/C",[2],87.3%
same,"viability, T/C",[3],80.7%
same,"viability, T/C",[4],82.3%
same,"viability, T/C",[5],90.7%
same,"viability, T/C",[6],88.8%
same,"viability, T/C",[7],123%
same,"viability, T/C",[8],99.2%
same,"viability, T/C",[9],90.1%
same,"viability, T/C",[10],70.1%
same,"viability, T/C",[11],96.2%
same,"viability, T/C",[12],93.2%
same,"viability, T/C",[13],97.2%
same,"viability, T/C",[14],111%
same,"viability, T/C",[15],94.7%
same,"viability, T/C",[16],92.2%
same,"viability, T/C",[17],91.4%
same,"viability, T/C",[18],79.8%
same,"viability, T/C",[19],98.2%
same,"viability, T/C",[20],86.6%
same,"viability, T/C",[21],107%
same,"viability, T/C",[22],88.2%
same,"viability, T/C",[23],110%
same,"viability, T/C",[24],95.1%
same,"viability, T/C",[25],80.2%
same,"viability, T/C",[26],116%
same,"viability, T/C",[27],105%
same,"viability, T/C",[28],124%
same,"viability, T/C",[29],123%
same,"viability, T/C",[30],90.6%
same,"viability, T/C",[31],104%
same,"viability, T/C",[32],103%
same,"viability, T/C",[33],116%
same,"viability, T/C",[34],92.3%
same,"viability, T/C",[35],95.7%
same,"viability, T/C",[36],97.6%
CC(C)n1c(=O)n(C)c2cnc3cc(F)c(-c4ccc(OCCCN5CCCCC5)nc4)cc3c21 + Cc1cnc(CNC(=O)c2c(=O)c3ccc(N4CCCN(C)CC4)nc3n3c2sc2ccccc23)cn1,IC50,second compound 0.0316 µM,> 10 µM
same,IC50,second compound 0.1 µM,0.255 µM
same,IC50,second compound 0.316 µM,< 0.0316 µM
same,IC50,second compound 1 µM,0.48 µM
same,IC50,second compound 3.16 µM,< 0.0316 µM
same,IC50,second compound 10 µM,< 0.0316 µM
same,"viability, T/C",[1],87.1%
same,"viability, T/C",[2],75%
same,"viability, T/C",[3],59.3%
same,"viability, T/C",[4],59.8%
same,"viability, T/C",[5],52.9%
same,"viability, T/C",[6],52%
same,"viability, T/C",[7],53.6%
same,"viability, T/C",[8],54.5%
same,"viability, T/C",[9],44.9%
same,"viability, T/C",[10],45.4%
same,"viability, T/C",[11],52.9%
same,"viability, T/C",[12],41.6%
same,"viability, T/C",[13],52.2%
same,"viability, T/C",[14],41.4%
same,"viability, T/C",[15],46.9%
same,"viability, T/C",[16],40%
same,"viability, T/C",[17],59.2%
same,"viability, T/C",[18],46.6%
same,"viability, T/C",[19],44.1%
same,"viability, T/C",[20],53.9%
same,"viability, T/C",[21],54.4%
same,"viability, T/C",[22],49.5%
same,"viability, T/C",[23],45.6%
same,"viability, T/C",[24],38.6%
same,"viability, T/C",[25],45.4%
same,"viability, T/C",[26],45.6%
same,"viability, T/C",[27],49%
same,"viability, T/C",[28],48.6%
same,"viability, T/C",[29],58.8%
same,"viability, T/C",[30],44.6%
same,"viability, T/C",[31],41.9%
same,"viability, T/C",[32],43.6%
same,"viability, T/C",[33],36.6%
same,"viability, T/C",[34],42.1%
same,"viability, T/C",[35],37.9%
same,"viability, T/C",[36],28.3%
